Data as given in patent publication US10934298B2, “Substituted pyrazolo[1,5-a]pyrimidines for the treatment of medical disorders” (BIAL—BioTech Investments, Inc., priority 2016, dated 2021).
Values after ≈ are worked out from the molar mass of the structure shown. Like-named read-outs stand apart in the source and are kept apart here.

Key:
[1] = biological target: T1, glucocerebrosidase (Gcase) (Homo sapiens, UniProt P04062); experiment: Glucocerebrosidase (Gcase) activation assay with 4-methylumbelliferyl-beta-D-glucopyranoside substrate, saposin C and phosphatidylserine/triton micelles, fluorescence readout; format: biochemical; details: for Percent Gease Activation, 0.1 μM Test Compound / Percent Gease Activation, 1 μM Test Compound: Table 4
T1 construct: micellar solution containing 10 nM GCase and 100 nM saposin C
T1 sequence (P04062 40-536): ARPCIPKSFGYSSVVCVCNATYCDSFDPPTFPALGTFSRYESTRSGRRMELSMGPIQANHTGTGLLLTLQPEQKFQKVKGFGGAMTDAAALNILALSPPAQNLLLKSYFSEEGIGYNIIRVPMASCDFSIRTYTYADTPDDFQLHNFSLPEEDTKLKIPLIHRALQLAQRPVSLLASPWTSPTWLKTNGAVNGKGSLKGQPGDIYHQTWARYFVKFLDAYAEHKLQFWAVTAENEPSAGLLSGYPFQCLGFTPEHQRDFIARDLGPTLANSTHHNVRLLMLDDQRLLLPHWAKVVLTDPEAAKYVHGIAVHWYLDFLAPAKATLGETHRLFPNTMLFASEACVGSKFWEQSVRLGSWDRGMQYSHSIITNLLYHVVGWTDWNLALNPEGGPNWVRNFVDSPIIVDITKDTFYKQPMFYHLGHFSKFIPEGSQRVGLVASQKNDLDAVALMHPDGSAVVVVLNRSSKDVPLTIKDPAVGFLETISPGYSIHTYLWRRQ
Outline: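 Test compounds are first screened at 1.0 and 0.1 μM final, then titrated in 8 points (3-fold from 5 μM) against human GCase with saposin C in phosphatidylserine/triton X-100 micelles at pH 4.7. Reactions run 15 min at room temperature, with fluorescence read at 365/440 nm.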

[2] = Compound solubility in water; format: physicochemical

COc1cccc(-c2cc(C)n3ncc(C(=O)NC(C4CC4)C(F)(F)F)c3n2)n1 (stereo not shown) [III-105]
Percent Gcase Activation, 0.1 μM Test Compound ([1]; test compound at 0.1 μM): *** (greater than 20% Gcase activation) | Percent Gcase Activation, 1 μM Test Compound ([1]; test compound at 1.0 μM): +++ (Gcase activation greater than 60%) | solubility [2]: 0.08 µg/mL (≈ 0.197 µM)

Cc1cc(-c2cccc(F)n2)nc2c(C(=O)NC(C3CC3)C(F)(F)F)cnn12 (stereo not shown) [III-130]
Percent Gcase Activation, 0.1 μM Test Compound ([1]; test compound at 0.1 μM): *** (greater than 20% Gcase activation) | Percent Gcase Activation, 1 μM Test Compound ([1]; test compound at 1.0 μM): +++ (Gcase activation greater than 60%) | solubility [2]: 0.2 µg/mL (≈ 0.508 µM)

Cc1cc(-c2cccnc2)nc2c(C(=O)N[C@@H](C)C3CC3)cnn12 [III-26]
Percent Gcase Activation, 0.1 μM Test Compound ([1]; 0.1 μM test compound, Table 3A): * (less than 10% Gcase activation) | Percent Gcase Activation, 1 μM Test Compound ([1]; 1 μM test compound, Table 3A): ++ (Gcase activation in the range of 30% up to 60%) | solubility ([2]; Table 3A): 26 µg/mL (≈ 80.9 µM)

Cc1cc(-c2ccc3ocnc3c2)nc2c(C(=O)NC(C3CC3)C(F)(F)F)cnn12 (stereo not shown) [III-171]
Percent Gcase Activation, 0.1 μM Test Compound ([1]; test compound at 0.1 μM): *** (greater than 20% Gcase activation) | Percent Gcase Activation, 1 μM Test Compound ([1]; test compound at 1.0 μM): +++ (Gcase activation greater than 60%) | Compound Solubility in Water [2]: 0.4 µg/mL

Cc1cc(C)n2ncc(C(=O)Nc3ccc(N4CCCCC4)cc3)c2n1 [IV-3]
Percent Gease Activation, 0.1 μM Test Compound ([1]; 0.1 μM test compound): * (less than 10% Gcase activation) | Percent Gease Activation, 1 μM Test Compound ([1]; 1 μM test compound): + (less than 30% Gcase activation) | Compound Solubility in Water ([2]; Table 4): <1.5 µg/mL

Cc1cc(-c2ccc(Cl)nc2)nc2c(C(=O)N[C@@H](C3CC3)C(F)(F)F)cnn12 [III-118]
Percent Gcase Activation, 0.1 μM Test Compound ([1]; test compound at 0.1 μM): *** (greater than 20% Gcase activation) | Percent Gcase Activation, 1 μM Test Compound ([1]; test compound at 1.0 μM): +++ (Gcase activation greater than 60%) | solubility [2]: 0.4 µg/mL (≈ 0.976 µM)

Cc1cc(-c2ccccn2)nc2c(C(=O)N[C@@H](C)C3CC3)cnn12 [III-24]
Percent Gcase Activation, 0.1 μM Test Compound ([1]; 0.1 μM test compound, Table 3A): ** (Gcase activation in the range of 10% up to 20%) | Percent Gcase Activation, 1 μM Test Compound ([1]; 1 μM test compound, Table 3A): +++ (Gcase activation greater than 60%) | solubility ([2]; Table 3A): 8.1 µg/mL (≈ 25.2 µM)

C#Cc1ccc(NC(=O)c2cnn3c(C)cc(C)nc23)cc1 [IV-1]
Percent Gease Activation, 0.1 μM Test Compound ([1]; 0.1 μM test compound): ** (Gcase activation in the range of 10% up to 20%) | Percent Gease Activation, 1 μM Test Compound ([1]; 1 μM test compound): ++ (Gcase activation in the range of 30% up to 60%) | Compound Solubility in Water ([2]; Table 4): <1.5 µg/mL

Cc1cc(-c2cccc3ncoc23)nc2c(C(=O)N[C@H](C)C3CC3)cnn12 [III-218]
Percent Gcase Activation, 0.1 μM Test Compound ([1]; test compound at 0.1 μM): * (less than 10% Gcase activation) | Percent Gcase Activation, 1 μM Test Compound ([1]; test compound at 1.0 μM): ++ (Gcase activation in the range of 30% up to 60%)

Cc1cc(NC2CC2)nc2c(C(=O)NC(C3CC3)C(F)(F)F)cnn12 (stereo not shown) [III-44]
Percent Gcase Activation, 0.1 μM Test Compound ([1]; 0.1 μM test compound, Table 3A): *** (greater than 20% Gcase activation) | Percent Gcase Activation, 1 μM Test Compound ([1]; 1 μM test compound, Table 3A): +++ (Gcase activation greater than 60%)

Cc1cc(-c2cc(C)n3ncc(C(=O)N[C@@H](C4CC4)C(F)(F)F)c3n2)sn1 [III-216]
Percent Gcase Activation, 0.1 μM Test Compound ([1]; test compound at 0.1 μM): *** (greater than 20% Gcase activation) | Percent Gcase Activation, 1 μM Test Compound ([1]; test compound at 1.0 μM): +++ (Gcase activation greater than 60%)

Cc1cc(-c2cccnn2)nc2c(C(=O)NC(C3CC3)C(F)(F)F)cnn12 (stereo not shown) [III-324]
Percent Gcase Activation, 0.1 μM Test Compound ([1]; 0.1 μM test compound): * (less than 10% Gcase activation) | Percent Gcase Activation, 1 μM Test Compound ([1]; 1 μM test compound): + (less than 30% Gcase activation)

Cc1cc(-c2ccc3ocnc3c2)nc2c(C(=O)N[C@@H](C3CC3)C(F)(F)F)cnn12 [III-110]
Percent Gcase Activation, 0.1 μM Test Compound ([1]; test compound at 0.1 μM): *** (greater than 20% Gcase activation) | Percent Gcase Activation, 1 μM Test Compound ([1]; test compound at 1.0 μM): +++ (Gcase activation greater than 60%)

Cc1cc(-c2ccc(F)cc2C#N)nc2c(C(=O)N[C@H](C)C3CC3)cnn12 [III-153]
Percent Gcase Activation, 0.1 μM Test Compound ([1]; test compound at 0.1 μM): ** (Gcase activation in the range of 10% up to 20%) | Percent Gcase Activation, 1 μM Test Compound ([1]; test compound at 1.0 μM): +++ (Gcase activation greater than 60%)

Cc1cc(-c2sccc2C#N)nc2c(C(=O)N[C@@H](C)C3CC3)cnn12 [III-301]
Percent Gcase Activation, 0.1 μM Test Compound ([1]; 0.1 μM test compound): *** (greater than 20% Gcase activation) | Percent Gcase Activation, 1 μM Test Compound ([1]; 1 μM test compound): +++ (Gcase activation greater than 60%)

Cc1cc(-c2occc2C#N)nc2c(C(=O)NC(C3CC3)C(F)(F)F)cnn12 (stereo not shown) [III-250]
Percent Gcase Activation, 0.1 μM Test Compound ([1]; test compound at 0.1 μM): *** (greater than 20% Gcase activation) | Percent Gcase Activation, 1 μM Test Compound ([1]; test compound at 1.0 μM): +++ (Gcase activation greater than 60%)
